Data: PubChem BioAssay AID330 (DTP/NCI, 2004)
Several values for one entry are separate records, joined by “and”; a condition that tells them apart may be missing. Equal entries are not always repeated. Toxic doses and inconclusive results are not listed.

Test system: P388 leukemia ip, CD2F1 mice, survival T/C
Assay: NCI In Vivo Anticancer Drug Screen. Data for tumor model P388 Leukemia (intraperitoneal) in CD2F1 (CDF1) mice
Conditions: endpoint: median survival time, higher = longer survival
Method in brief: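 Mice carrying the transplanted tumor received test compound or vehicle. Survival was recorded in each group, and the value is the treated-group measurement divided by that of the vehicle-treated control group.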

[1] = dose: 50.0 mg/kg/injection, schedule: Q01DX009 (ip), vehicle: saline with Tween-80
[2] = dose: 100.0 mg/kg/injection, schedule: Q01DX009 (ip), vehicle: saline with Tween-80
[3] = dose: 200.0 mg/kg/injection, schedule: Q01DX009 (ip), vehicle: saline with Tween-80

In the case of `CCCCCCOC(=O)C(N)Cc1ccc(N(CCCl)CCCl)cc1` (stereo unspecified), the T/C (dose: 1.28 mg/kg/injection, schedule: Q01DX009 (ip), vehicle: saline) is reported as 245 % of control, the T/C (dose: 2.55 mg/kg/injection, schedule: Q01DX009 (ip), vehicle: saline) is reported as 322 % of control and the T/C (dose: 3.2 mg/kg/injection, schedule: Q03HX008 (ip), vehicle: saline) is reported as 165 % of control. For the same compound, the T/C (dose: 5.1 mg/kg/injection, schedule: Q01DX009 (ip), vehicle: saline) was 118 % of control, the T/C (dose: 6.4 mg/kg/injection, schedule: Q03HX008 (ip), vehicle: saline) was 180 % of control and the T/C (dose: 10.2 mg/kg/injection, schedule: Q01DX009 (ip), vehicle: saline) was 86 % of control. The T/C (dose: 12.8 mg/kg/injection, schedule: Q03HX008 (ip), vehicle: saline) was 295 % of control, the T/C (dose: 25.5 mg/kg/injection, schedule: Q03HX008 (ip), vehicle: saline) was 600 % of control and the T/C (dose: 51.0 mg/kg/injection, schedule: Q03HX008 (ip), vehicle: saline) was 600 % of control.

For `Cc1ccc(S(=O)(=O)N(C)C=O)cc1`, the T/C [1] was 100 % of control, the T/C [2] was 103 % of control and the T/C [3] was 101 % of control.

In the case of `CC(C)(c1ccccc1)c1cc(CN2CCCCC2)c(O)c(CN2CCCCC2)c1`, the T/C (dose: 0.78 mg/kg/injection, schedule: Q01DX009 (ip), vehicle: saline) is reported as 100 % of control and 95 % of control, the T/C (dose: 1.56 mg/kg/injection, schedule: Q01DX009 (ip), vehicle: saline) is reported as 104 % of control and 112 % of control and the T/C (dose: 3.13 mg/kg/injection, schedule: Q01DX009 (ip), vehicle: saline) is reported as 108 % of control and 113 % of control and 121 % of control. The T/C (dose: 6.25 mg/kg/injection, schedule: Q01DX009 (ip), vehicle: saline) was 105 % of control and 90 % of control and 95 % of control, the T/C (dose: 12.5 mg/kg/injection, schedule: Q01DX009 (ip), vehicle: saline) was 94 % of control and the T/C (dose: 25.0 mg/kg/injection, schedule: Q01DX009 (ip), vehicle: saline with Tween-80) was 91 % of control. For the same compound, the T/C (dose: 25.0 mg/kg/injection, schedule: Q01DX009 (ip), vehicle: saline) was 96 % of control and the T/C [2] was 97 % of control.

In the case of `Nc1nc2c(C(=O)N3CCCC3)nnn2c2cccc(Cl)c12`, the T/C (dose: 60.0 mg/kg/injection, schedule: Q01DX005 (ip), vehicle: saline with Tween-80) is reported as 107 % of control, the T/C (dose: 120.0 mg/kg/injection, schedule: Q01DX005 (ip), vehicle: saline with Tween-80) is reported as 106 % of control and the T/C (dose: 240.0 mg/kg/injection, schedule: Q01DX005 (ip), vehicle: saline with Tween-80) is reported as 106 % of control.

With `O=C(CC(=O)NO)NO` the T/C [1] was 106 % of control, the T/C (dose: 50.0 mg/kg/injection, schedule: Q01DX009 (ip), vehicle: saline) was 115 % of control and the T/C [2] was 108 % of control. The T/C (dose: 100.0 mg/kg/injection, schedule: Q01DX009 (ip), vehicle: saline) was 110 % of control, the T/C [3] was 108 % of control and the T/C (dose: 200.0 mg/kg/injection, schedule: Q01DX009 (ip), vehicle: saline) was 108 % of control.

In the case of `COc1ccc(CC2C(=O)NC(C)C(=O)N(C)C3Cc4ccc(cc4)Oc4cc(ccc4OC(C)=O)CC(C(=O)NC(C)C(=O)NC(C)C(=O)N2C)N(C)C3=O)cc1` (stereo unspecified), the T/C (dose: 2.0 mg/kg/injection, schedule: Q01DX009 (ip), vehicle: none) is reported as 167 % of control.

For `CC1(C)CC(Nc2ccccc2)=CC(=Nc2ccccc2)S1`, the T/C (dose: 60.0 mg/kg/injection, schedule: Q01DX005 (ip), vehicle: Klucel (hydroxypropylcellulose) (HPC)) was 110 % of control, the T/C (dose: 120.0 mg/kg/injection, schedule: Q01DX005 (ip), vehicle: Klucel (hydroxypropylcellulose) (HPC)) was 92 % of control and the T/C (dose: 240.0 mg/kg/injection, schedule: Q01DX005 (ip), vehicle: Klucel (hydroxypropylcellulose) (HPC)) was 89 % of control.

For `Cc1[nH]c(=O)[nH]c(=O)c1/C=C/C(=O)NC(CO)CS(=O)CS(C)=O` (stereo unspecified), the T/C (dose: 1.2 mg/kg/injection, schedule: Q01DX009 (ip), vehicle: water) was 119 % of control, the T/C (dose: 2.2 mg/kg/injection, schedule: Q01DX009 (ip), vehicle: water) was 122 % of control and the T/C (dose: 2.4 mg/kg/injection, schedule: Q01DX009 (ip), vehicle: water) was 119 % of control.
